Assay results: PMC4503722, “Novel Phenotypic Outcomes Identified for a Public Collection of Approved Drugs from a Publicly Accessible Panel of Assays” (PLoS ONE, 2015)

How the values were obtained:
[1] = tested on: alkaline phosphatase (ALP) activity in C2C12 cells; assay type: cell-based; conditions: concentration response; for WntCondMedia_Alk Phos C2C12 IC50/EC50: assay number 6
[2] = tested on: nuclear β-catenin in C2C12 cells; experiment: cells; assay type: cell-based; conditions: concentration response; for WntCondMedia_bCatenin C2C12 IC50/EC50: assay number 5
[3] = tested on: HeLa cells; experiment: cells; assay type: cell-based
[4] = tested on: endothelial tube formation in co-cultures of ECFCs and ADSCs treated with VEGF; experiment: cells; assay type: cell-based, human
[5] = tested on: ECFC/ADSC co-culture cell nuclei number

| Compound | WntCondMedia_Alk Phos C2C12 IC50/EC50 [1] | WntCondMedia_bCatenin C2C12 IC50/EC50 [2] | VEGF_ADSC\ECFC Angio CD31 TubeArea IC50/EC50 [4] | VEGF_ADSC\ECFC Angio Hoechst NucArea IC50/EC50 [5] | other results |
| --- | --- | --- | --- | --- | --- |
| CCCCCCCCCCCCCCC[C@H](O)[C@@H](N)CO [NCGC00015362-05] | > 20 µM | > 20 µM |  |  |  |
| CCCCc1ccc2nc(NC(=O)OC)[nH]c2c1 [NCGC00016706-07] |  |  |  |  | IC50/EC50, Hela CellCycMod PI 2N (assay number 14) ([3]; 2N): 0.0104 µM; IC50/EC50, Hela CellCycMod PI 4N (assay number 16) ([3]; 4N): 0.01062 µM; IC50/EC50, Hela CellCycMod PI Cell Number (assay number 18) ([3]; Cell Number): 0.00566 µM; IC50/EC50, Hela CellCycMod PI MI (assay number 17) ([3]; MI): 0.00717 µM; IC50/EC50, Hela CellCycMod PI S Phase (assay number 15) ([3]; S Phase): > 10 µM; IC50/EC50, WntCondMedia_Alk Phos C2C12 (assay number 6) [1]: 0.0682 µM; IC50/EC50, VEGF_ADSC\ECFC Angio CD31 TubeArea (assay number 2) [4]: 0.053 µM; IC50/EC50, WntCondMedia_bCatenin C2C12 (assay number 5) [2]: 0.0336 µM; IC50/EC50, VEGF_ADSC\ECFC Angio Hoechst NucArea (assay number 3) [5]: > 10 µM |
| CN[C@@H]1C[C@@H](c2ccc(Cl)c(Cl)c2)c2ccccc21 [NCGC00025223-04] | > 20 µM | > 20 µM | > 10 µM | > 10 µM |  |
| Cl.O[C@@H](c1cc(C(F)(F)F)nc2c(C(F)(F)F)cccc12)[C@H]1CCCCN1 [NCGC00161831-04] | > 20 µM | > 20 µM | > 10 µM | 8.609 µM |  |
| Cc1cc(CC(C)CC(C)(C)C)n(O)c(=O)c1 (stereo not shown) [NCGC00167586-03] | > 20 µM | 0.5913 µM |  |  | Hela CellCycMod PI 2N IC50/EC50 ([3]; assay number 14, 2N): > 10 µM; Hela CellCycMod PI S Phase IC50/EC50 ([3]; assay number 15, S phase): > 10 µM; Hela CellCycMod PI 4N IC50/EC50 ([3]; assay number 16, 4N): > 10 µM; Hela CellCycMod PI MI IC50/EC50 ([3]; assay number 17, MI): > 10 µM; Hela CellCycMod PI Cell Number IC50/EC50 ([3]; assay number 18, cell number): 0.1332 µM |
| COc1cc([C@@H]2c3cc4c(cc3[C@@H](O[C@@H]3O[C@@H]5CO[C@@H](C)O[C@@H]5[C@H](O)[C@@H]3O)[C@H]3COC(=O)[C@H]23)OCO4)cc(OC)c1O [NCGC00179504-05] | > 20 µM | > 20 µM | 0.1091 µM | 0.9666 µM |  |
| Clc1cc(Cl)c(OCC#CI)cc1Cl [NCGC00181134-02] | > 20 µM | > 20 µM | > 10 µM | > 10 µM |  |
